Laboratory results published in patent US4772602A, “N-substituted 3,4-dihydropyrimidine derivatives as agents for treating disorders of cardiovascular system” (Suntory Limited, priority 1985, dated 1988).

Columns and labels:
[1] = tested on: isolated guinea pig hearts (coronary artery); assay: coronary vascular dilative effect in isolated guinea pig hearts (Langendorff's method); parameters: species or system guinea pig (Heartley); conditions: 37° C., 0.1 ml administered into the coronary artery
Experimental: The coronary vascular dilative effect of 3N-substituted 3,4-dihydropyrimidine derivatives was tested.
Heartley guinea pigs (weight 400-500 g) were killed by a blow on the head and their hearts were immediately isolated. The hearts were perfused with Krebs-Henseleit solution bubbled with a mixture of 95% O2 +5% CO2 and maintained at 37° C. at a constant rate of 6 ml/minute according to the Langendorff's method [J. Pharmacol. Methods 2, 143 (1979)]. The perfusion pressure was measured by a pressure transducer continuously. Samples were prepared by emulsifying 1 mg of a test compound in 1 ml of a mixture of dimethylsulfoxide and physiological saline solution (1:9) and diluting with physiological saline solution to the predetermined concentration. 0.1 ml of the diluted solution was administered into the coronary artery via a rubber tube connected to an aorta cannula to obtain ED50 (μg/heart) data as shown in Table 3. The numbers of the compounds in the Table correspond respectively to those of the working examples described above.

[2] = tested on: vertebral artery; assay: vascular resistance of the vertebral artery in anesthetized dogs (ED30); format: in vivo, dog; conditions: Canis lupus familiaris, intravenous injection
Experimental: The pharmacological effect (ED30) of the compounds of the present invention with respect to the vascular resistance of the vertebral artery in anesthetized dogs was treated by the following procedure.
Adult dogs of either sex (7-14 kg in body weight) were anesthetized with at first thiopental sodium (35 mg/kg, intraperitoneal), anesthetized with urethane (400 mg/kg, intravenous) and chloralose (60 mg/kg, intravenous) and kept under artificial respiration throughout the experiment. After thoracotomy at the left first intercostal space, the vertebral artery was exposed and blood flow was measured with intracorporeal flow probe connected to an electromagnetic flowmeter (MF-27, Nihon Kohden).
At the same time, continuous measurement of the following parameters was made: systemic blood pressure (mean pressure) at the right femoral artery, the limb lead II ECG, the heart rate with a tachometer triggered by the R wave of ECG, and the vascular resistance determined by loading a electronic divider unit (EO-601 G, Nihon Kohden) with the mean values of blood pressure and vertebral artery blood flow. All of these parameters were recorded simultaneously on a polygraph (RM-600, Nihon Kohden).
All the test compounds were injected through a cannula inserted into the femoral vein.
The ED30 (μg/kg) values obtained by intravenous injection are listed in Table 4, wherein the Compound Numbers are keyed to the Example Numbers.

[3] = tested on: vertebral artery; assay: time course of reduction of the resistance of the vertebral artery in anesthetized dogs (T1/2); format: in vivo, dog; conditions: ED30 doses injected
Experimental: Selected compounds of the present invention were tested for their ability to reduce the resistance of the vertebral artery in anesthetized dogs.
The animals were injected with the ED30 doses of test compounds and the time course of changes in the vasucular resistance were studied as shown schematically in FIG. 1. From the curve shown in FIG. 1, the values of T1/2 (min) (the time to reach 50% of the resistance drop). The results are shown in Table 5, in which the compound numbers correspond to the Example numbers.

SMILES	ED50 (coronary vascular dilative effect) [1]	ED30 [2]	T1/2 (the time to reach 50% of the resistance drop) [3]
CC1=NC(C)=C(C(=O)OCC2CC2)C(c2ccccc2[N+](=O)[O-])N1C(=O)OCCN(C)Cc1ccccc1 (stereo not drawn) [Compound 1, 3-{2-(N-benzyl-N-methylamino)ethoxycarbonyl}-5-cyclopropylmethoxycarbonyl-2,6-dimethyl-4-(2-nitrophenyl)-3,4-dihydropyrimidine]	0.013 μg/heart	0.58 µg/kg	
CC1=NC(C)=C(C(=O)OCC2CC2)C(c2cccc([N+](=O)[O-])c2)N1C(=O)OCCN(C)Cc1ccccc1 (stereo not drawn) [Compound 2]	0.52 μg/heart	0.84 µg/kg	
CCOC(=O)C1=C(C)N=C(C)N(C(=O)OCCN(C)Cc2ccccc2)C1c1ccccc1[N+](=O)[O-] (stereo not drawn) [Compound 3]	0.0095 μg/heart	0.75 µg/kg	
COc1ccc(CN(C)CCOC(=O)N2C(C)=NC(C)=C(C(=O)OCC3CC3)C2c2ccccc2[N+](=O)[O-])cc1 (stereo not drawn) [Compound 5]	0.036 μg/heart	2.4 µg/kg	
CC1=NC(C)=C(C(=O)OCC2CC2)C(c2ccccc2[N+](=O)[O-])N1C(=O)OCCN(C)C(c1ccccc1)c1ccccc1 (stereo not drawn) [Compound 8]		4.1 µg/kg	
CCCCN(CCOC(=O)N1C(C)=NC(C)=C(C(=O)OCC2CC2)C1c1ccccc1[N+](=O)[O-])Cc1ccccc1 (stereo not drawn) [Compound 14]		2.1 µg/kg	
CCN(CCOC(=O)N1C(C)=NC(C)=C(C(=O)OCC2CC2)C1c1ccccc1[N+](=O)[O-])c1ccccc1 (stereo not drawn) [Compound 15]		2.5 µg/kg	
CC1=NC(C)=C(C(=O)OCC2CC2)C(c2ccccc2[N+](=O)[O-])N1C(=O)OCCCN(C)Cc1ccccc1 (stereo not drawn) [Compound 16]		3.8 µg/kg	
CC1=NC(C)=C(C(=O)OCC2CC2)C(c2ccccc2[N+](=O)[O-])N1C(=O)OCCN(C)CCc1ccccc1 (stereo not drawn) [Compound 17]		3.4 µg/kg	
CC1=NC(C)=C(C(=O)OCC2CC2)C(c2ccccc2[N+](=O)[O-])N1C(=O)OCC1CCCN1Cc1ccccc1 (stereo not drawn) [Compound 19]		1.4 µg/kg	
CC1=NC(C)=C(C(=O)OCC2CC2)C(c2ccccc2[N+](=O)[O-])N1C(=O)OCCN1CCOCC1 (stereo not drawn) [Compound 20]		4 µg/kg	
CC1=NC(C)=C(C(=O)OCC2CC2)C(c2ccccc2[N+](=O)[O-])N1C(=O)OCCN1CCN(Cc2ccccc2)CC1 (stereo not drawn) [Compound 24]	0.01 μg/heart		
CC1=NC(C)=C(C(=O)OCC2CC2)C(c2ccccc2[N+](=O)[O-])N1C(=O)OCCN1CCN(c2cccc(C(F)(F)F)c2)CC1 (stereo not drawn) [Compound 26]		4.1 µg/kg	
CC1=NC(C)=C(C(=O)OC(C)C)C(c2ccccc2[N+](=O)[O-])N1C(=O)OCCc1ccccn1 (stereo not drawn) [Compound 27]	0.029 μg/heart		
CC1=NC(C)=C(C(=O)OCC2CC2)C(c2ccccc2[N+](=O)[O-])N1C(=O)OCCN(C/C=C/c1ccccc1)Cc1ccccc1 (stereo not drawn) [Compound 29]		2.5 µg/kg	9.5 min
CC1=NC(C)=C(C(=O)OCC2CC2)C(c2ccccc2[N+](=O)[O-])N1C(=O)OCCN(C)Cc1ccc2ccccc2c1 (stereo not drawn) [Compound 30]		0.6 µg/kg	
CC1=NC(C)=C(C(=O)OCC2CC2)C(c2ccccc2[N+](=O)[O-])N1C(=O)OCCN(C/C=C/c1ccccc1)Cc1cccs1 (stereo not drawn) [Compound 32]		3.2 µg/kg	7.0 min
CC1=NC(C)=C(C(=O)OCC2CC2)C(c2ccccc2[N+](=O)[O-])N1C(=O)OCCN(C/C=C/c1ccccc1)C/C=C/c1ccccc1 (stereo not drawn) [Compound 33]			30.5 min
CC1=NC(C)=C(C(=O)OCC2CC2)C(c2ccccc2[N+](=O)[O-])N1C(=O)OCCN(C)Cc1ccccn1 (stereo not drawn) [Compound 35]		4.2 µg/kg	
CC1=NC(C)=C(C(=O)OCC2CC2)C(c2cccc([N+](=O)[O-])c2)N1C(=O)OCCN(CCCc1ccccc1)Cc1ccccc1 (stereo not drawn) [Compound 36]			12.0 min
CC1=NC(C)=C(C(=O)OC(C)C)C(c2cccc([N+](=O)[O-])c2)N1C(=O)OCCN(CCCc1ccccc1)Cc1ccccc1 (stereo not drawn) [Compound 37]			10.3 min
CCOC(=O)C1=C(C)N=C(C)N(C(=O)OCCN(CCCc2ccccc2)Cc2ccccc2)C1c1cccc([N+](=O)[O-])c1 (stereo not drawn) [Compound 38]		4.2 µg/kg	8.0 min
CC1=NC(C)=C(C(=O)OC(C)C)C(c2ccccc2[N+](=O)[O-])N1C(=O)OCCN(CCCc1ccccc1)Cc1ccccc1 (stereo not drawn) [Compound 39]		2.3 µg/kg	

SMILES	ED50 (coronary vascular dilative effect) [1]	ED30 [2]	T1/2 (the time to reach 50% of the resistance drop) [3]
CCOC(=O)C1=C(C)N=C(C)N(C(=O)OCCN(CCCc2ccccc2)Cc2ccccc2)C1c1ccccc1[N+](=O)[O-] (stereo not drawn) [Compound 40]		1.5 µg/kg	
CC1=NC(C)=C(C(=O)OC(C)C)C(c2ccccc2[N+](=O)[O-])N1C(=O)OCCN(Cc1ccccc1)Cc1ccc2ccccc2c1 (stereo not drawn) [Compound 45]		1.8 µg/kg	15.6 min
CCCOC(=O)C1=C(C)N=C(C)N(C(=O)OCCN(Cc2ccccc2)Cc2ccccc2)C1c1ccccc1[N+](=O)[O-] (stereo not drawn) [Compound 46]		2 µg/kg	
CCCCOC(=O)C1=C(C)N=C(C)N(C(=O)OCCN(Cc2ccccc2)Cc2ccccc2)C1c1ccccc1[N+](=O)[O-] (stereo not drawn) [Compound 47]			13.0 min
COC(=O)C1=C(C)N=C(C)N(C(=O)OCCN(Cc2ccccc2)Cc2ccccc2)C1c1ccccc1[N+](=O)[O-] (stereo not drawn) [Compound 48]		2 µg/kg	
CC1=NC(C)=C(C(=O)OC(C)C)C(c2ccccc2[N+](=O)[O-])N1C(=O)OCCN(Cc1ccccc1)Cc1ccccc1 (stereo not drawn) [Compound 49]		2.8 µg/kg	
CC1=NC(C)=C(C(=O)OC(C)C)C(c2ccccc2[N+](=O)[O-])N1C(=O)OCCN(Cc1ccccc1)c1ccccc1 (stereo not drawn) [Compound 50]		0.74 µg/kg	
CC1=NC(C)=C(C(=O)OCC2CC2)C(c2ccccc2[N+](=O)[O-])N1C(=O)OCCN(Cc1ccccc1)Cc1ccccc1 (stereo not drawn) [Compound 52]		1.5 µg/kg	8.0 min
CC1=NC(C)=C(C(=O)OC(C)C)C(c2ccccc2[N+](=O)[O-])N1C(=O)OCCN(CCCc1ccccc1)c1ccccc1 (stereo not drawn) [Compound 53]		2.5 µg/kg	7.7 min
CC1=NC(C)=C(C(=O)OC(C)C)C(c2ccccc2[N+](=O)[O-])N1C(=O)OCCN(CCc1ccccc1)c1ccccc1 (stereo not drawn) [Compound 54]		1.4 µg/kg	
CC1=NC(C)=C(C(=O)OCC(C)C)C(c2ccccc2[N+](=O)[O-])N1C(=O)OCCN(Cc1ccccc1)Cc1ccccc1 (stereo not drawn) [Compound 55]		3.8 µg/kg	9.2 min
COC(=O)C1=C(C)N=C(C)N(C(=O)OCCN(CCCc2ccccc2)Cc2ccccc2)C1c1ccccc1[N+](=O)[O-] (stereo not drawn) [Compound 57]		0.48 µg/kg	
CC1=NC(C)=C(C(=O)OC(C)C)C(c2ccccc2[N+](=O)[O-])N1C(=O)OCCN(Cc1ccccn1)c1ccccc1 (stereo not drawn) [Compound 58]		2.5 µg/kg	
CC1=NC(C)=C(C(=O)OCC(C)C)C(c2ccccc2[N+](=O)[O-])N1C(=O)OCCN(Cc1ccccc1)c1ccccc1 (stereo not drawn) [Compound 60]		1.7 µg/kg	
CCOC(=O)C1=C(C)N=C(C)N(C(=O)OCCN(Cc2ccccc2)Cc2ccccc2)C1c1ccccc1[N+](=O)[O-] (stereo not drawn) [Compound 61]		1.4 µg/kg	
CC1=NC(C)=C(C(=O)OC(C)C)C(c2ccccc2[N+](=O)[O-])N1C(=O)OCCN(CCc1ccccc1)Cc1ccccc1 (stereo not drawn) [Compound 62]		1.2 µg/kg	
CC1=NC(C)=C(C(=O)OCC2CC2)C(c2ccccc2[N+](=O)[O-])N1C(=O)OCCc1cccs1 (stereo not drawn) [Compound 63]		1.3 µg/kg	
CC1=NC(C)=C(C(=O)OCC2CC2)C(c2ccccc2[N+](=O)[O-])N1C(=O)OCCSc1nc2ccccc2s1 (stereo not drawn) [Compound 64]		0.93 µg/kg	
CC1=NC(C)=C(C(=O)OC(C)C)C(c2ccccc2[N+](=O)[O-])N1C(=O)OCCN(CCCc1ccccc1)CCCc1ccccc1 (stereo not drawn) [Compound 66]			11.9 min
CC1=NC(C)=C(C(=O)OC(C)C)C(c2ccccc2[N+](=O)[O-])N1C(=O)OCCN(Cc1ccccc1)Cc1cccs1 (stereo not drawn) [Compound 67]		1 µg/kg	
CC1=NC(C)=C(C(=O)OC(C)C)C(c2ccccc2[N+](=O)[O-])N1C(=O)OCCN(Cc1ccccc1)Cc1ccccn1 (stereo not drawn) [Compound 68]		4.4 µg/kg	
CC1=NC(C)=C(C(=O)OC(C)C)C(c2cccc([N+](=O)[O-])c2)N1C(=O)OCCN(Cc1ccccc1)c1ccccc1 (stereo not drawn) [Compound 70]		3 µg/kg	
COC(=O)C1=C(C)N=C(C)N(C(=O)OCCN(Cc2ccccc2)c2ccccc2)C1c1ccccc1[N+](=O)[O-] (stereo not drawn) [Compound 71]		5 µg/kg	
